Tests used:
ABCB1 = molecular target: T1, ABCB1 (Homo sapiens, UniProt P08183); assay: vanadate-sensitive ATPase, endpoint Pi assay, membrane vesicles; type: biochemical; details: read-out: concentration to produce half of the maximum stimulation
T1 construct: membrane vesicles of ABCB1-overexpressing High Five insect cells
Excerpt: vanadate-sensitive ATPase, endpoint Pi assay, membrane vesicles on ABCB1 | HS-173 stimulated the ATPase activity of ABCB1 in a concentration-dependent manner

ABCG2 = molecular target: T2, ABCG2 (Homo sapiens, UniProt Q9UNQ0); assay: as above; type: biochemical; details: read-out: concentration to produce half of the highest stimulation
T2 construct: membrane vesicles of ABCG2-overexpressing High Five insect cells; homodimer
T2 sequence (Q9UNQ0 1-655): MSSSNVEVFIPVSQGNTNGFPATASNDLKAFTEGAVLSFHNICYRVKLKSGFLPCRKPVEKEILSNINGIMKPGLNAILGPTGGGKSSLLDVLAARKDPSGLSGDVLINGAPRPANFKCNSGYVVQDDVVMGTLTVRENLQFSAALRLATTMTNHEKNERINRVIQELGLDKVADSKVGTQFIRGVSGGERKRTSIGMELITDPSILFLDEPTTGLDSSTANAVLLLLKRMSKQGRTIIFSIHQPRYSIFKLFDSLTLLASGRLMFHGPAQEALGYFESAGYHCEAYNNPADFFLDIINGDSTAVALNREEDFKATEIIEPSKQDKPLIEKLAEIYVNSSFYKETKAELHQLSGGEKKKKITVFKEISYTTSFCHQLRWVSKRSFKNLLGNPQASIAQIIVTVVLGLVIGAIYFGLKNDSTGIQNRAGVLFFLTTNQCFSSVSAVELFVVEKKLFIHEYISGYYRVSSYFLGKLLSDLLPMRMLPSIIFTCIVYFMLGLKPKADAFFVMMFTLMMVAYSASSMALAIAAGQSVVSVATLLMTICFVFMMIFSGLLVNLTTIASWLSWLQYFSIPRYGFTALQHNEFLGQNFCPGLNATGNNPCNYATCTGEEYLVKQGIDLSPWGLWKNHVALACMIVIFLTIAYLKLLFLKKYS
Excerpt: vanadate-sensitive ATPase, endpoint Pi assay, membrane vesicles on ABCG2 | ABCG2-mediated ATP hydrolysis was stimulated by HS-173 in a concentration-dependent manner

T1 sequence (P08183 whole entry): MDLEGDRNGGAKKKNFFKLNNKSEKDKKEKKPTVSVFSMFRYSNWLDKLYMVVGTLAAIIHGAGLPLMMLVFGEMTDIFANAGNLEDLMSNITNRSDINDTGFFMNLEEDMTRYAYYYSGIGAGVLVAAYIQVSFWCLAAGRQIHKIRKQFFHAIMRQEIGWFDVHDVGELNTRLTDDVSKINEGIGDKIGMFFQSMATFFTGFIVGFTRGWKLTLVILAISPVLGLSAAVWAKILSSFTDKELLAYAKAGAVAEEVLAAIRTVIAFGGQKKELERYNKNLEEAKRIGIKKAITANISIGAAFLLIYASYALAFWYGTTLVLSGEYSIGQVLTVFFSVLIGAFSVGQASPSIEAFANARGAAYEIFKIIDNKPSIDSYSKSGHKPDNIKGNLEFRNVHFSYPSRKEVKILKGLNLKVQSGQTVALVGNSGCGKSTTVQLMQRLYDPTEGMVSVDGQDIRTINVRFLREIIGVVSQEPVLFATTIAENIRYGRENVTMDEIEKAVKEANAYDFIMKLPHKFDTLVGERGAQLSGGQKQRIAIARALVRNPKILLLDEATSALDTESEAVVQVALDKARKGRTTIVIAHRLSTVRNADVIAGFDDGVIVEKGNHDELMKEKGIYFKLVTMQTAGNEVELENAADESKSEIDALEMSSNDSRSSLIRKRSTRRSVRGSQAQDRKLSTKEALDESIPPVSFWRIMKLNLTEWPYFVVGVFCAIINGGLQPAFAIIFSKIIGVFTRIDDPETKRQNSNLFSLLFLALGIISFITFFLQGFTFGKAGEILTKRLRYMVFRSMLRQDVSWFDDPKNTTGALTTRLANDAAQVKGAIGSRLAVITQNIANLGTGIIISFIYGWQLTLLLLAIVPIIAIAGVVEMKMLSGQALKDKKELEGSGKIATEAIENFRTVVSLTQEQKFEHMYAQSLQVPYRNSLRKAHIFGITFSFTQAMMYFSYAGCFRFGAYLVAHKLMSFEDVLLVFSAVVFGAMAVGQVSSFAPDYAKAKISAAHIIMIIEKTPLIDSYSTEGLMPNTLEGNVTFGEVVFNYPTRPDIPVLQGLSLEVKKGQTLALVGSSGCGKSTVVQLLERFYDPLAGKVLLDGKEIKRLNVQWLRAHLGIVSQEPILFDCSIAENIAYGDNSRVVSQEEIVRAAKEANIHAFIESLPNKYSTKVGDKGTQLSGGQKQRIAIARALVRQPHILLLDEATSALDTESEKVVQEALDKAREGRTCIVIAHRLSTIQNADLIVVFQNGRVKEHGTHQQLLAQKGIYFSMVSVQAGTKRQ

EC50 (ABCB1): ~1700 nM
EC50 (ABCG2): ~400 nM
SMILES: CCOC(=O)c1cnc2ccc(-c3cncc(NS(=O)(=O)c4ccccc4)c3)cn12 [HS-173]

Reference: publication PMC10093605, “ABCB1 and ABCG2 Overexpression Mediates Resistance to the Phosphatidylinositol 3-Kinase Inhibitor HS-173 in Cancer Cell Lines” (Cells, 2023)
